Broadly, the IC50 is the concentration that gives 50% inhibition.

Structures are written as SMILES.

This assay deals with PAF-induced primary aggregation. Put plainly: PAF-induced primary aggregation in human platelet-rich plasma. Format: cell-based. Particulars: indomethacin-treated PRP, test compound incubated two minutes at 37° C. before sub-optimal dose of PAF, read-out: IC50, inhibition of PAF-induced primary aggregation in human platelet-rich plasma. On the procedure: PAF-Induced Primary Aggregation in Human Platelet-Rich Plasma
Human venous blood was collected from healthy male donors, who had denied any medication during the previous 14 days. Nine volumes of blood were mixed with one volume of 3.24% trisodium citrate. The citrated blood was centrifuged at 160 g for ten minutes at 22° C. to obtain platelet rich plasma (PRP). The platelets were then counted on a Coulter counter, and the platelet count was adjusted to 200,000 per μl with plasma. The PRP was then treated with indomethacin dissolved in dimethylsulfoxide (10 μg indomethacin per ml PRP). A stock solution of PAF (C16 or C18 β-acetyl-γ-O-alkyl-L-α-phosphatidylcholine; 1 mg/ml) was prepared as a solution in chloroform-methanol (9:1 v/v). A 10 μl portion of the stock solution was evaporated to dryness under nitrogen and dissolved in 0.15M sodium chloride-0.15M Tris.HCl (90:10 v/v) buffer containing 0.25% bovine albumin. Small volumes of the PAF solution (5-15 μl) were added to 0.5 ml samples of indomethacin-treated PRP and the aggregation trace was recorded using an aggregometer. A dose reponse curve was obtained and a sub-optimal dose of PAF was determined for use in inhibition studies.
Indomethacin-treated PRP (0.5 ml) was incubated with a test compound dissolved in buffer (ca. pH 5) or dimethylsulfoxide for two minutes at 37° C. prior to addition of the sub-optimal dose of PAF. The subsequent aggregation trace was recorded and the present inhibition of PAF primary aggregation was determined by comparison with a control PAF-induced aggregation trace. (Due to variability in PAF-induced aggregation within a given PRP sample, a control PAF-induced aggregation was determined every two or three samples.) An inhibition dose-response curve was determined for each test compound and the IC50 value calculated. Table I lists IC50 's for illustrative examples of the compounds of this invention.
On to `CCOC(=O)c1ccc(Cn2cnc3ccncc32)cc1` [1(A), Ethyl 4-(3H-imidazo[4,5-c]pyridin-3-ylmethyl)benzoate], for which the IC50 stood at 136 µM.

Regarding `CCOC(=O)c1ccc(Cn2cnc3cnccc32)cc1` [1(B), Ethyl 4-(1H-imidazo[4,5-c]pyridin-1-ylmethyl)benzoate], the IC50 came to 46 µM. With `CCOC(=O)c1cccc(Cn2cnc3ccncc32)c1` [2(A), Ethyl 3-(3H-imidazo[4,5-c]pyridin-3-ylmethyl)benzoate] the figure was 165 µM. With `CCOC(=O)c1cccc(Cn2cnc3cnccc32)c1` [2(B), Ethyl 3-(1H-imidazo[4,5-c]pyridin-1-ylmethyl)benzoate], the IC50 was found to be 80 µM. With `CCOC(=O)CCCn1cnc2ccncc21` [6(A), Ethyl 4-(3H-imidazo[4,5-c]pyridin-3-yl)butanoate], the IC50 was found to be 140 µM. On to `CCOC(=O)CCCCn1cnc2ccncc21` [7(A), Ethyl 5-(3H-imidazo[4,5-c]pyridin-3-yl)pentanoate], for which the IC50 was 500 µM. Consider `CCOC(=O)CCCCn1cnc2cnccc21` [7(B), Ethyl 5-(1H-imidazo[4,5-c]pyridin-1-yl)pentanoate], for which the IC50 was 185 µM.

In the case of `CCOC(=O)CCCCCn1cnc2ccncc21` [8(A), Ethyl 6-(3H-imidazo[4,5-c]pyridin-3-yl)hexanoate], the half-inhibitory concentration (IC50) is 102 µM. In the case of `CCOC(=O)CCCCCn1cnc2cnccc21` [8(B), Ethyl 6-(1H-imidazo[4,5-c]pyridin-1-yl)hexanoate], the IC50 was determined as 20.5 µM. The value for `CCOC(=O)CCCCCCn1cnc2ccncc21` [9(A), Ethyl 7-(3H-imidazo[4,5-c]pyridin-3-yl)heptanoate] was 48 µM; that for `CCOC(=O)CCCCCCn1cnc2cnccc21` [9(B), Ethyl 7-(1H-imidazo[4,5-c]pyridin-1-yl)heptanoate] was 20 µM.

For `CCOC(=O)C(C)(C)CCCCn1cnc2ccncc21` [10(A), Ethyl 2,2-dimethyl-6-(3H-imidazo[4,5-c]pyridin-3-yl)hexanoate], the IC50 was found to be 43.5 µM. As to `CCOC(=O)C(C)(C)CCCCn1cnc2cnccc21` [10(B), Ethyl 2,2-dimethyl-6-(1H-imidazo[4,5-c]pyridin-1-yl)hexanoate], the IC50 stood at 15 µM. For the compound `CN(C(=O)CCCCCCn1cnc2ccncc21)C1CCCCC1` [11(A), N-Cyclohexyl-N-Methyl-7-(3H-imidazo[4,5-c]pyridin-3-yl)heptanamide], the IC50 is 500 µM.

As to `c1cc2ncn(CCCCc3nnnn3C3CCCCC3)c2cn1` [12(A), 3-[4-(1-Cyclohexyl-1H-tetrazol-5-yl)butyl]-3H-imidazo[4,5-c]pyridine], the IC50 was 56 µM. For the compound `c1cc2c(cn1)ncn2CCCCc1nnnn1C1CCCCC1` [12(B), 1-[4-(1-Cyclohexyl-1H-tetrazol-5-yl)butyl]-1H-imidazo[4,5-c]pyridine], the IC50 was 8 µM. In the case of `CCOC(=O)c1ccc(Cn2cnc3cccnc32)cc1` [14(A), Ethyl 4-(3H-imidazo[4,5-b]pyridin-3-ylmethyl)benzoate], the IC50 was found to be 58 µM. Consider `CCOC(=O)c1ccc(Cn2cnc3ncccc32)cc1` [14(B), Ethyl 4-(1H-imidazo[4,5-b]pyridin-1-ylmethyl)benzoate], for which the IC50 is 29 µM.

Regarding `c1cnc2c(c1)ncn2CCCCc1nnnn1C1CCCCC1` [16(A), 3-[4-(1-Cyclohexyl-1H-tetrazol-5-yl)butyl]-3H-imidazo[4,5-b]pyridine], the IC50 worked out at 118 µM. Turning to `c1cnc2ncn(CCCCc3nnnn3C3CCCCC3)c2c1` [16(B), 1-[4-(1-Cyclohexyl-1H-tetrazol-5-yl)butyl]-1H-imidazo[4,5-b]pyridine], the IC50 was determined as 112 µM. The value for `O=C(c1ccc(Cn2cnc3cnccc32)cc1)N1CCOCC1` [Example 3, [4-(1H-imidazo[4,5-c]pyridin-1-ylmethyl)phenyl](4-morpholinyl)methanone] was 49.5 µM; that for `O=C(c1ccc(Cn2cnc3ccncc32)cc1)N1CCOCC1` [Example 4, [4-(3H-imidazo[4,5-c]pyridin-3-ylmethyl)phenyl](4-morpholinyl)methanone] was 215 µM. In the case of `CN(C(=O)c1ccc(Cn2cnc3cnccc32)cc1)C1CCCCC1` [Example 5, N-Cyclohexyl-N-methyl-4-(1H-imidazo[4,5-c]pyridin-1-yl-methyl)benzamide], the concentration for half-maximal inhibition (IC50) turned out to be 5 µM. `c1cc2c(cn1)ncn2CCCCCc1nnnn1C1CCCCC1` [Example 13, 1-[5-(1-Cyclohexyl-1H-tetrazol-5-yl)pentyl]-1H-imidazo[4,5-c]pyridine]: the IC50 stood at 33 µM. For `O=C(c1ccc(Cn2cnc3ncccc32)cc1)N1CCOCC1` [Example 15, [4-(1H-Imidazo[4,5-b]pyridin-1-ylmethyl)phenyl](4-morpholinyl)methanone], the IC50 came out at 87 µM.
